Assay results taken from US9770407B2 (Lundbeck Pharmaceuticals LLC, priority 2005, dated 2017).

How the values were obtained:
[1] = Steady-state trough concentrations, oral observed vs IV predicted by the method of superposition; type: in vivo, human
Method: The most relevant factor in considering the dose adjustment for intravenously administered CBZ is for treatment centers to maintain plasma concentrations of CBZ above the therapeutic threshold. Following administration of 100 mg of IV CBZ, observed plasma concentrations followed a […] decay indicating a very fast distribution to tissues followed by a slower elimination of drug out of the body. Steady-state plasma concentrations of IV CBZ were predicted using the method of superposition. Plasma concentrations following a single dose of IV CBZ were scaled-up to steady-state conditions, assuming linear pharmacokinetics, using an accumulation ratio, a mean F of 0.7, and correcting for dose (see Equations 1 and 2). As a result, this calculation allows for a comparison of steady-state trough plasma concentrations following oral (Co and IV (C6 hr) administration of CBZ respectively assuming a dosing interval of once every six hours for the IV formulation.
[formula] Where Cpss(IV) is the plasma concentration (C) at steady state for IV administration; CpsD is the plasma concentration after a single dose; Int is the y-intercept resulting from linear regression of the elimination phase; λ is the terminal elimination rate constant; Dpo is the total oral daily dose; DIV is the single IV dose; F is the absolute bioavailability; T is the dosing interval; and t is the time of each observed concentration.

[2] = clinical; conditions: human, in vivo
Method: Indwelling catheters were placed into the arms of test subjects. A single 100 mg dose of stable-labeled (non-radioactive) CBZ (SL-CBZ) was then infused over 10 minutes. At the end of the infusion, the subject's usual morning dose of oral CBZ, less 100 mg, was administered. Blood pressure, heart rate and rhythm, and infusion site discomfort were monitored during and for an hour after the infusion. […] Unbound CBZ was measured following ultrafiltration. CBZ concentration-time data were analyzed using a non-compartmental approach with the pharmacokinetic software, WinNONLIN.
A validated LC-MS assay for SL-CBZ, CBZ and their respective epoxide metabolites was used. […] CBZ was assayed similar to that described by Osterloh and Bertilsson. […] After shaking and centrifugation, the organic layer was removed and evaporated under nitrogen gas to dryness. Each sample was then redissolved with the addition of 25 microliters of ethyl acetate. Plasma samples were measured for unbound and total CBZ, CBZ glucuronide and CBZ-E by LCMS. Unbound drug was separated from the bound fraction by ultrafiltration. The mobile phase consists of 50% 0.05 M ammonium acetate buffer, pH 4.7, 50% MeOH at a flow rate of 0.4 ml/min, on a reverse phase C-18 column.

NC(=O)N1c2ccccc2C=Cc2ccccc21 [Carbamazepine, 5H-dibenz[b,f]azepine-5-carboxamide]
statistical comparison of trough values following oral and IV administration ([1]; 6-hour time-point, α=0.10, p=0.1931): not statistically different
statistical comparison of trough values following oral and IV administration ([1]; 12-hour time-point, post-dose): significantly different
Difference Between the Means ([1]; Co (oral only) vs C6 hr (IV only), N=62): 0.09456
concentration at 6 h ([1]; human, plasma, 100 mg, predicted by superposition, IV every six hours, mean F=0.70, N=62, read-out: C6 hr (IV only), mean steady-state plasma concentration at the 6-hour time-point): 8040 ng/mL
Co (oral only), mean oral steady-state trough plasma concentration ([1]; observed, oral twice daily dosing, n=62 evaluable subjects): 8.98 µg/mL
AUC ([2]; iv, 100 mg, AUC 0-° o): 36500 ng·h/mL
clearance ([2]; iv, CL): 0.6 mL/min/kg
AUC ([2]; po, AUCss (po)): 87200 ng·h/mL
bioavailability ([2]; po, absolute bioavailability of oral CBZ during maintenance therapy centers around): 70 to 75%
bioavailability ([2]; po, average oral bioavailability): 65 to 75%
